We go through 1 compound from patent publication US9050341B2, “Methods of treating drug resistant and other tumors by administering 6,7-dialkoxy quinazoline derivatives” (NATCO PHARMA LIMITED, priority 2009, dated 2015).

What all share (experiment): KinomeScan kinase profiling
Common to all, as to format: binding

Assay [1] addresses T1, RPS6KA4 (Kin.Dom.-1-N-terminal) (Homo sapiens, UniProt O75676).
T1 construct: RPS6KA4 (Kin.Dom.-1-N-terminal); host or cells: E. coli host derived from BL21, T7 phage lysate
Summed up:
(§1)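 Kinases were expressed as T7 phage fusions in a BL21-derived E. coli host and the cleared lysates were used. Ligand beads were blocked with biotin and buffer (1% BSA, 0.05% Tween 20, 1 mM DTT). Compounds came from 40× DMSO stocks, and phage in the eluates was titred by qPCR.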

A further assay deals with T2, RIOK2 (Homo sapiens, UniProt Q9BVS4).
T2 construct: host or cells: E. coli host derived from BL21, T7 phage lysate
The essentials:
as §1

The target of another assay is T3, LCK (Homo sapiens, UniProt P06239).
T3 construct: host or cells: T7 phage in E. coli host derived from BL21
The essentials:
as §1

A further assay addresses T4, MEK4 (Homo sapiens, UniProt P45985).
T4 construct: host or cells: E. coli derived from BL21, infected with T7 phage
Summed up: as §1

The target of the next assay is T5, NEK9 (Homo sapiens, UniProt Q8TD19).
T5 construct: host or cells: T7 phage in E. coli host derived from BL21
Summed up:
as §1

Assay [2] deals with T6, RPS6KA4 (Kin.Dom.-2-C-terminal) (Homo sapiens, UniProt O75676).
T6 construct: RPS6KA4(KIN.DOM.2); host or cells: E. coli host derived from BL21, T7 phage lysate
The essentials:
as §1

A further assay deals with T7, KIT (V559D, V654A) (Homo sapiens, UniProt P10721, V559D/V654A).
T7 construct: host or cells: T7 phage in E. coli host derived from BL21
Summed up: as §1

The target of the next assay is T8, NEK2 (Homo sapiens, UniProt P51955).
T8 construct: host or cells: T7 phage in E. coli host derived from BL21
The essentials:
as §1

The next assay addresses T9, PIK3CA (Homo sapiens, UniProt P42336).
T9 construct: host or cells: E. coli host derived from the BL21 strain, infected with T7 phage
The essentials: as §1

The next assay addresses T10, BRK (Homo sapiens, UniProt Q13882).
T10 construct: purchased Ambit Biosciences Corp (KinomeScan); host or cells: E. coli host derived from the BL21 strain, T7 phage
The essentials:
as §1

For another assay, the target named is T11, ERK1 (Homo sapiens, UniProt P27361).
T11 construct: host or cells: E. coli host derived from BL21, T7 phage lysate
Summed up: as §1

The next assay addresses T12, MAP3K4 (Homo sapiens, UniProt Q9Y6R4).
T12 construct: host or cells: E. coli derived from BL21, infected with T7 phage
The essentials: as §1

Another assay concerns the target T13, ERBB2 (Homo sapiens, UniProt P04626).
T13 construct: host or cells: E. coli host derived from BL21, T7 phage lysate
The essentials: as §1

The target in the next assay is T14, CHEK2 (Homo sapiens, UniProt O96017).
T14 construct: host or cells: T7 phage in E. coli (BL21-derived)
The essentials:
as §1

A further assay addresses T15, CAMKK2 (Homo sapiens, UniProt Q96RR4).
T15 construct: host or cells: T7 phage in E. coli (BL21-derived)
Summed up:
as §1

The target of the next assay is T16, PIM1 (Homo sapiens, UniProt P11309).
T16 construct: purchased Ambit Biosciences Corp (KinomeScan); host or cells: E. coli host derived from BL21, infected with T7 phage
Summed up:
as §1

For a further assay, the target named is T17, EPHA4 (Homo sapiens, UniProt P54764).
T17 construct: host or cells: E. coli host derived from BL21, T7 phage lysate
Summed up:
as §1

For a further assay, the target named is T18, MST1R (Homo sapiens, UniProt Q04912).
T18 construct: host or cells: T7 phage in E. coli host derived from BL21
The essentials: as §1

The target of a further assay is T19, LYN (Homo sapiens, UniProt P07948).
T19 construct: host or cells: E. coli derived from BL21, infected with T7 phage
Summed up: as §1

A further assay has as its target T20, MAP4K4 (Homo sapiens, UniProt O95819).
T20 construct: host or cells: E. coli derived from BL21, infected with T7 phage
The essentials: as §1

The target of the next assay is T21, TIE2 (Homo sapiens, UniProt Q02763).
T21 construct: purchased Ambit Biosciences Corp (KinomeScan); host or cells: E. coli host derived from the BL21 strain (T7 phage lysate)
Summed up: as §1

T18 sequence (Q04912 25-1400): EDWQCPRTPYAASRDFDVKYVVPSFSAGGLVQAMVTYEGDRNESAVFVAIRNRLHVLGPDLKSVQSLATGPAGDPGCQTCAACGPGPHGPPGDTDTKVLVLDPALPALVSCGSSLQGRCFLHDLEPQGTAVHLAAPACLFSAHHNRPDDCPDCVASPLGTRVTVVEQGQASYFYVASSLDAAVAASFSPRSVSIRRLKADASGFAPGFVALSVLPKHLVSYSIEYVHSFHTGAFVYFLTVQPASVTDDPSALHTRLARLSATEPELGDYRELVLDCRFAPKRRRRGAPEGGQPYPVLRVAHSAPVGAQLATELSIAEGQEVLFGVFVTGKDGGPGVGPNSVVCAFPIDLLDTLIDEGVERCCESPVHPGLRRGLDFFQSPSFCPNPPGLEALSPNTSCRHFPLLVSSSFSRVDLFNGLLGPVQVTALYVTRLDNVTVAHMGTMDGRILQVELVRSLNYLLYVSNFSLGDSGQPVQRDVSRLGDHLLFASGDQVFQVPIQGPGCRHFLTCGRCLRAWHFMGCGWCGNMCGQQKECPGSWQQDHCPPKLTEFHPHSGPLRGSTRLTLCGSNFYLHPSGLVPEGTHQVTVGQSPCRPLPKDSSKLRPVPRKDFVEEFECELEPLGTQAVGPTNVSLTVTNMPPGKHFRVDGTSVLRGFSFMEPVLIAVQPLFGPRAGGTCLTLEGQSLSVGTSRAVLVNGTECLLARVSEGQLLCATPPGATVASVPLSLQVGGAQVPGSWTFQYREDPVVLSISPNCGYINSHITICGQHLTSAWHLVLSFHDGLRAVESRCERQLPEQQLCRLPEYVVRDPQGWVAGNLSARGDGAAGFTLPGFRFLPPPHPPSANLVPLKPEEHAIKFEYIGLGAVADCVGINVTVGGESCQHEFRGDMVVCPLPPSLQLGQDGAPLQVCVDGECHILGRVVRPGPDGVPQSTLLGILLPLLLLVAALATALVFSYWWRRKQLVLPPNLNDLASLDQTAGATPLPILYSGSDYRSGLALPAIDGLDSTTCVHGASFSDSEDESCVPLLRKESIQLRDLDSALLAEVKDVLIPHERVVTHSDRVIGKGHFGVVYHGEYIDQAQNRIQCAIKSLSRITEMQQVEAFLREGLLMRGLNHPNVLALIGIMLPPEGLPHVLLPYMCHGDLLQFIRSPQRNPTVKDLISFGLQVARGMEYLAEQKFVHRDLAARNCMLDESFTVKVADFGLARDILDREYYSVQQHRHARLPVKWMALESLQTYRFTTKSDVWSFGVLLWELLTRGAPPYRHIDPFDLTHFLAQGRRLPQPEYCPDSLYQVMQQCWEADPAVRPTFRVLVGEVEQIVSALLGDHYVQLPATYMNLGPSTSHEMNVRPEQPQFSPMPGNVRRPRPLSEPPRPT
T19 sequence (P07948 whole entry): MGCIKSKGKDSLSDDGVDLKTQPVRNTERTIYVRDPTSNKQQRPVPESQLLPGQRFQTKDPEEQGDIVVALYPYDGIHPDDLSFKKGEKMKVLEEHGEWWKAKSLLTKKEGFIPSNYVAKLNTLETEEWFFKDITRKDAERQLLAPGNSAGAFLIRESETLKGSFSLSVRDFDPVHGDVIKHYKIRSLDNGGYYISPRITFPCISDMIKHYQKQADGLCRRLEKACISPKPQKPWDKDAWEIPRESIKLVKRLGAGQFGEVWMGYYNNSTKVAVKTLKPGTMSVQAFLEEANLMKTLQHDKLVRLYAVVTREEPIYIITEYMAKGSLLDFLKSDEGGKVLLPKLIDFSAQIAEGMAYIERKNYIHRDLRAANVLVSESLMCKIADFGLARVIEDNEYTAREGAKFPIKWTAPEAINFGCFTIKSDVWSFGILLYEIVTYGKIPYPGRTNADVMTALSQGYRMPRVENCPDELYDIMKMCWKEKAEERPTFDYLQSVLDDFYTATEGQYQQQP
T21 sequence (Q02763 23-1124): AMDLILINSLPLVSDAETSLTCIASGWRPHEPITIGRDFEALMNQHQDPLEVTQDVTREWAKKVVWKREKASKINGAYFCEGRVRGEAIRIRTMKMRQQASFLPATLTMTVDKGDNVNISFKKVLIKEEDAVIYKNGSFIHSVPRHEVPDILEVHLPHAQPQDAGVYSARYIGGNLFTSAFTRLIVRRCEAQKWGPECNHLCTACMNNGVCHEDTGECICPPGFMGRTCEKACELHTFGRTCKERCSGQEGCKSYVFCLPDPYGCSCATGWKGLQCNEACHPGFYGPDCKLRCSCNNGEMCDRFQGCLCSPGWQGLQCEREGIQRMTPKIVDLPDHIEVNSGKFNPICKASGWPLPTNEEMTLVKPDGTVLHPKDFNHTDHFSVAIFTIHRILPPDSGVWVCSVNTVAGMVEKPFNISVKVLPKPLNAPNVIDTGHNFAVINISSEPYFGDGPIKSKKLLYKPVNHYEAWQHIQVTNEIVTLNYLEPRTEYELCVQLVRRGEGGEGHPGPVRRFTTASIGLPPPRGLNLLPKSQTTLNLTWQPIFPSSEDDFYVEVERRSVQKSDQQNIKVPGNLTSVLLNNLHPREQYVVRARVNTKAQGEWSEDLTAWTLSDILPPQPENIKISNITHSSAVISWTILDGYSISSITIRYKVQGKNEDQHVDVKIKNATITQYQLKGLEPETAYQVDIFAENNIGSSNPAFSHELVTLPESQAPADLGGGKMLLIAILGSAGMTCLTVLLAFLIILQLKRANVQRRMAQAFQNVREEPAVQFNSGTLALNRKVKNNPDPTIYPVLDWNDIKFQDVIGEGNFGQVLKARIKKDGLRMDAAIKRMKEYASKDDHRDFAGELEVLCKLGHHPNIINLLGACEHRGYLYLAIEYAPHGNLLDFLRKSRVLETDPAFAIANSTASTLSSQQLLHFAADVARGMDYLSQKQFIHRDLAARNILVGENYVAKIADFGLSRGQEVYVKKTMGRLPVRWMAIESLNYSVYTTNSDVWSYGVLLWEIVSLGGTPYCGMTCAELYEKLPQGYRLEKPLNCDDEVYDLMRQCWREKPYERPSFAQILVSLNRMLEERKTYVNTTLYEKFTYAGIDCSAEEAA
T13 sequence (P04626 23-1255): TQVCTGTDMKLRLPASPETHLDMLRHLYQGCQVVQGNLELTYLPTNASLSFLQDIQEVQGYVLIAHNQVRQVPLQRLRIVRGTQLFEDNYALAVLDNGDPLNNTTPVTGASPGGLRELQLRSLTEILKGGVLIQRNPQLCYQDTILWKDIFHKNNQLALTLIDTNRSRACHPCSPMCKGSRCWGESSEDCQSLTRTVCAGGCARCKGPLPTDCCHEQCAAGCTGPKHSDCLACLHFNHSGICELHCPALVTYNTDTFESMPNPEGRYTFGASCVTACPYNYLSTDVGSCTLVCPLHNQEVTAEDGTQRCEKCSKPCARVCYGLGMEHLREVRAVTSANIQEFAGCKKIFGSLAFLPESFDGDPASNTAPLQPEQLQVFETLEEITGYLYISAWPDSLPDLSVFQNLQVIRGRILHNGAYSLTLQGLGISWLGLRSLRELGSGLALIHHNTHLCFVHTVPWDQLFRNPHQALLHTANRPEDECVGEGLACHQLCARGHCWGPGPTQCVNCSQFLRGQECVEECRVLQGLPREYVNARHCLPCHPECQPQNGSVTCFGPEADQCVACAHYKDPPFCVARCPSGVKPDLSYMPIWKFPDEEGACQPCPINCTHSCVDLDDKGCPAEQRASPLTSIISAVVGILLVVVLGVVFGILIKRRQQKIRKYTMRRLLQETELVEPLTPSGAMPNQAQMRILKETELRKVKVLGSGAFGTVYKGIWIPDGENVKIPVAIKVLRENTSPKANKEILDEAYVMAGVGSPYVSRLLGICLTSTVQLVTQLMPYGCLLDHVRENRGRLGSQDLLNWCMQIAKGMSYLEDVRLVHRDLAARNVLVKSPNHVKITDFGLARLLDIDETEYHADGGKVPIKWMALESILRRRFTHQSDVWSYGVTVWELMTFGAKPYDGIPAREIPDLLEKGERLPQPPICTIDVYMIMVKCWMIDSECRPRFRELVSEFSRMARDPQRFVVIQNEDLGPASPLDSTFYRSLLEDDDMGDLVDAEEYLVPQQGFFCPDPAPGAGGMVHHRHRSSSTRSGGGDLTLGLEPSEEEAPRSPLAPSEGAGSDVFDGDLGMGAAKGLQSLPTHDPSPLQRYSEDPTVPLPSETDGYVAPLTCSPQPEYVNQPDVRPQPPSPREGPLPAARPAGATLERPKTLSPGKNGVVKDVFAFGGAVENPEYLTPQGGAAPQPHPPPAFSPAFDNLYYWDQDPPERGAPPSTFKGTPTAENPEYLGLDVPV
T11 sequence (P27361 whole entry): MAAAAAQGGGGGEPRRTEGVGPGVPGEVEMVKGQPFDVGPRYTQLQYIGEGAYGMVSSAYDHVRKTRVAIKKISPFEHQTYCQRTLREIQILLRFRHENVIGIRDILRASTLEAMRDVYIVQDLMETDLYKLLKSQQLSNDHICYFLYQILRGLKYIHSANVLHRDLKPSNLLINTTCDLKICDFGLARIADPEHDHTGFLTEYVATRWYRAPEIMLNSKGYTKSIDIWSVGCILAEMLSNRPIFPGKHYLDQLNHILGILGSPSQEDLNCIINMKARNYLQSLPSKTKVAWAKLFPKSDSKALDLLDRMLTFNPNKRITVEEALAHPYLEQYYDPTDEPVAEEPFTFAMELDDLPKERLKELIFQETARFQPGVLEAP
T1 sequence (O75676 33-301 limits assumed): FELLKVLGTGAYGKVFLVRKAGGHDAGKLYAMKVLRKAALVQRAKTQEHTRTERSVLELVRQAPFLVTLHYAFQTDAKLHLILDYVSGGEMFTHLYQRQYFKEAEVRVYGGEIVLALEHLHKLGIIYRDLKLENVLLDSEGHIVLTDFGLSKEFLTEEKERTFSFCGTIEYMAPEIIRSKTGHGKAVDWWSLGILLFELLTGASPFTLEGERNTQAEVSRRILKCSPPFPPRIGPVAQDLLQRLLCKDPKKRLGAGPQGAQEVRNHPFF

`C#Cc1cccc(Nc2ncnc3cc(OC)c(OCCCN4CCOCC4)cc23)c1` [NRC-2694, N-(3-ethylnylphenyl)-7-methoxy-6-[3-(4-morpholinyl)propoxy]-4-quinazolinamine]: the “% Ctrl @ 10000 nM” value in assay [1] came out at 84 % Ctrl; at RIOK2 it was 43 % Ctrl; on LCK, 1.5 % Ctrl; on MEK4, 92 % Ctrl; on NEK9, 85 % Ctrl; in assay [2], 8.9 % Ctrl. In addition, the “% Ctrl @ 10000 nM” value at KIT (V559D, V654A) turned out to be 47 % Ctrl; at NEK2, 63 % Ctrl; at PIK3CA, 100 % Ctrl; at BRK, 46 % Ctrl; on ERK1, 98 % Ctrl; at MAP3K4, 53 % Ctrl. Further, the “% Ctrl @ 10000 nM” value came to 31 % Ctrl on ERBB2; 38 % Ctrl on CHEK2; 60 % Ctrl at CAMKK2; 39 % Ctrl on PIM1; 64 % Ctrl at EPHA4; 94 % Ctrl on MST1R. The entries for the “% Ctrl @ 10000 nM” value at LYN, on MAP4K4 and on TIE2 were 13 % Ctrl, 20 % Ctrl and 76 % Ctrl, respectively.
